# Data: ChEMBL document CHEMBL3046555, “Synthesis and Microbiological Evaluation of Novel [N-Acetyl-2,6-Diarylpiperidin-4-YL]-5-Spiro-4-Acetyl-2-(Acetylamino)-2-1,3,4-Thiadiazolines” (2004)
# Activity calls are given as the source filed them. No cut-off for these calls is given here.
# Legend:
# Bacillus subtilis = experiment: Antibacterial activity against Bacillus subtilis after 24 hr by two-fold serial dilution method; format: functional
# Klebsiella pneumoniae [1] = experiment: Antibacterial activity against Klebsiella pneumoniae at 100 ug/ml after 24 hr by two-fold serial dilution method; format: functional, organism-based
# Candida [2] = experiment: Antifungal activity against Candida-6 at 100 ug/ml after 72 to 96 hr by two-fold serial dilution method; format: functional, organism-based
# Aspergillus niger = experiment: Antifungal activity against Aspergillus niger after 72 to 96 hr by two-fold serial dilution method; format: functional
# Escherichia coli = experiment: Antibacterial activity against Escherichia coli after 24 hr by two-fold serial dilution method; format: functional
# Enterococcus faecalis [3] = experiment: Antibacterial activity against Enterococcus faecalis at 100 ug/ml after 24 hr by two-fold serial dilution method; format: functional, organism-based
# Aspergillus flavus [4] = experiment: Antifungal activity against Aspergillus flavus at 100 ug/ml after 72 to 96 hr by two-fold serial dilution method; format: functional, organism-based
# Pseudomonas aeruginosa [5] = experiment: Antibacterial activity against Pseudomonas aeruginosa at 100 ug/ml after 24 hr by two-fold serial dilution method; format: functional, organism-based
# Candida [6] = experiment: Antifungal activity against Candida-51 at 100 ug/ml after 72 to 96 hr by two-fold serial dilution method; format: functional, organism-based
# Cryptococcus neoformans [7] = experiment: Antifungal activity against Cryptococcus neoformans at 100 ug/ml after 72 to 96 hr by two-fold serial dilution method; format: functional, organism-based
# Enterococcus faecalis [8] = experiment: Antibacterial activity against Enterococcus faecalis after 24 hr by two-fold serial dilution method; format: functional
# Candida [9] = experiment: Antifungal activity against Candida-51 after 72 to 96 hr by two-fold serial dilution method; format: functional
# Aspergillus flavus [10] = experiment: Antifungal activity against Aspergillus flavus after 72 to 96 hr by two-fold serial dilution method; format: functional
# Candida [11] = experiment: Antifungal activity against Candida-6 after 72 to 96 hr by two-fold serial dilution method; format: functional
# Cryptococcus neoformans [12] = experiment: Antifungal activity against Cryptococcus neoformans after 72 to 96 hr by two-fold serial dilution method; format: functional
# Pseudomonas aeruginosa [13] = experiment: Antibacterial activity against Pseudomonas aeruginosa after 24 hr by two-fold serial dilution method; format: functional
# Klebsiella pneumoniae [14] = experiment: Antibacterial activity against Klebsiella pneumoniae after 24 hr by two-fold serial dilution method; format: functional
Structure (SMILES),MIC (Bacillus subtilis) [µg/mL],MIC (Aspergillus niger) [µg/mL],MIC (Escherichia coli) [µg/mL],MIC (Enterococcus faecalis [8]) [µg/mL],MIC (Candida [9]) [µg/mL],MIC (Aspergillus flavus [10]) [µg/mL],MIC (Candida [11]) [µg/mL],MIC (Cryptococcus neoformans [12]) [µg/mL],MIC (Pseudomonas aeruginosa [13]) [µg/mL],MIC (Klebsiella pneumoniae [14]) [µg/mL],inhibition (Klebsiella pneumoniae [1]),inhibition (Candida [2]),inhibition (Enterococcus faecalis [3]),inhibition (Aspergillus flavus [4]),inhibition (Pseudomonas aeruginosa [5]),inhibition (Candida [6]),inhibition (Cryptococcus neoformans [7])
CN[C@@H]1[C@H](O[C@H]2[C@H](O[C@H]3[C@H](O)[C@@H](O)[C@H](N=C(N)N)[C@@H](O)[C@@H]3N=C(N)N)O[C@@H](C)[C@]2(O)C=O)O[C@@H](CO)[C@H](O)[C@H]1O [STREPTOMYCIN],12.5,–,12.5,50,–,–,–,–,25,25,–,–,–,–,–,–,–
CC(=O)NC1=NN(C(C)=O)C2(CC(c3ccc(C)cc3)N(C(C)=O)C(c3ccc(C)cc3)C2)S1 (stereo not given),100,50,100,100,100,–,50,–,100,100,–,–,–,inactive,–,–,inactive
CC1(C)S[C@@H]2[C@H](NC(=O)Cc3ccccc3)C(=O)N2[C@H]1C(=O)O [PENICILLIN G],25,–,50,12.5,–,–,–,–,50,12.5,–,–,–,–,–,–,–
CC(=O)NC1=NN(C(C)=O)C2(CC(c3ccc(Cl)cc3)N(C(C)=O)C(c3ccc(Cl)cc3)C2)S1 (stereo not given),50,25,50,25,50,50,50,25,25,25,–,–,–,–,–,–,–
C[C@@H]1[C@H](O)[C@@H](C)/C=C/C=C/C=C/C=C/C=C/C=C/C=C/[C@H](O[C@@H]2O[C@H](C)[C@@H](O)[C@H](N)[C@@H]2O)C[C@@H]2O[C@](O)(C[C@@H](O)C[C@@H](O)[C@H](O)CC[C@@H](O)C[C@@H](O)CC(=O)O[C@H]1C)C[C@H](O)[C@H]2C(=O)O [AMPHOTERICIN B],–,50,–,–,25,50,25,25,–,–,–,–,–,–,–,–,–

# More lines, in order of falling MIC (Bacillus subtilis), values ahead:
MIC (Bacillus subtilis) [µg/mL],MIC (Aspergillus niger) [µg/mL],MIC (Escherichia coli) [µg/mL],MIC (Enterococcus faecalis [8]) [µg/mL],MIC (Candida [9]) [µg/mL],MIC (Aspergillus flavus [10]) [µg/mL],MIC (Candida [11]) [µg/mL],MIC (Cryptococcus neoformans [12]) [µg/mL],MIC (Pseudomonas aeruginosa [13]) [µg/mL],MIC (Klebsiella pneumoniae [14]) [µg/mL],Structure (SMILES),inhibition (Klebsiella pneumoniae [1]),inhibition (Candida [2]),inhibition (Enterococcus faecalis [3]),inhibition (Aspergillus flavus [4]),inhibition (Pseudomonas aeruginosa [5]),inhibition (Candida [6]),inhibition (Cryptococcus neoformans [7])
100,100,50,–,–,–,–,–,–,–,CC(=O)NC1=NN(C(C)=O)C2(CC(c3ccccc3)N(C(C)=O)C(c3ccccc3)C2)S1 (stereo not given),inactive,inactive,inactive,inactive,inactive,inactive,inactive
100,50,50,50,100,100,50,–,50,25,CC(=O)NC1=NN(C(C)=O)C2(CC(c3ccc(C)cc3)N(C(C)=O)C(c3ccc(C)cc3)C2C)S1 (stereo not given),–,–,–,–,–,–,inactive
100,50,50,100,–,100,–,–,–,–,CC(=O)NC1=NN(C(C)=O)C2(CC(c3ccccc3)N(C(C)=O)C(c3ccccc3)C2C)S1 (stereo not given),inactive,inactive,–,–,inactive,inactive,inactive
50,25,25,12.5,25,50,25,12.5,25,12.5,CC(=O)NC1=NN(C(C)=O)C2(CC(c3ccc(Cl)cc3)N(C(C)=O)C(c3ccc(Cl)cc3)C2C)S1 (stereo not given),–,–,–,–,–,–,–
25,25,25,25,50,25,25,12.5,50,12.5,COc1ccc(C2CC3(CC(c4ccc(OC)cc4)N2C(C)=O)SC(NC(C)=O)=NN3C(C)=O)cc1 (stereo not given),–,–,–,–,–,–,–
25,25,25,25,25,25,50,6.25,25,6.25,COc1ccc(C2CC3(SC(NC(C)=O)=NN3C(C)=O)C(C)C(c3ccc(OC)cc3)N2C(C)=O)cc1 (stereo not given),–,–,–,–,–,–,–
